Key:
Format in all cases: biochemical
[1] = biological target: T1, HDAC6 enzyme (Homo sapiens, UniProt Q9UBN7); experiment: HDAC1/6 Enzyme Inhibitory Assay (HDAC-Glo I/II Assay kit), HDAC6; details: 1 μM test compound, wells without enzyme = 100% inhibition; for inhibition at 1 µM: read-out: HDAC6 inhibitory rate (%) (1 μM)
T1 construct: transducing full length HDAC1 and HDAC6 genes into Sf-9 insect cells; GST; purchased SignalChem; host or cells: Sf-9 insect cells
T1 sequence (Q9UBN7 1-1215): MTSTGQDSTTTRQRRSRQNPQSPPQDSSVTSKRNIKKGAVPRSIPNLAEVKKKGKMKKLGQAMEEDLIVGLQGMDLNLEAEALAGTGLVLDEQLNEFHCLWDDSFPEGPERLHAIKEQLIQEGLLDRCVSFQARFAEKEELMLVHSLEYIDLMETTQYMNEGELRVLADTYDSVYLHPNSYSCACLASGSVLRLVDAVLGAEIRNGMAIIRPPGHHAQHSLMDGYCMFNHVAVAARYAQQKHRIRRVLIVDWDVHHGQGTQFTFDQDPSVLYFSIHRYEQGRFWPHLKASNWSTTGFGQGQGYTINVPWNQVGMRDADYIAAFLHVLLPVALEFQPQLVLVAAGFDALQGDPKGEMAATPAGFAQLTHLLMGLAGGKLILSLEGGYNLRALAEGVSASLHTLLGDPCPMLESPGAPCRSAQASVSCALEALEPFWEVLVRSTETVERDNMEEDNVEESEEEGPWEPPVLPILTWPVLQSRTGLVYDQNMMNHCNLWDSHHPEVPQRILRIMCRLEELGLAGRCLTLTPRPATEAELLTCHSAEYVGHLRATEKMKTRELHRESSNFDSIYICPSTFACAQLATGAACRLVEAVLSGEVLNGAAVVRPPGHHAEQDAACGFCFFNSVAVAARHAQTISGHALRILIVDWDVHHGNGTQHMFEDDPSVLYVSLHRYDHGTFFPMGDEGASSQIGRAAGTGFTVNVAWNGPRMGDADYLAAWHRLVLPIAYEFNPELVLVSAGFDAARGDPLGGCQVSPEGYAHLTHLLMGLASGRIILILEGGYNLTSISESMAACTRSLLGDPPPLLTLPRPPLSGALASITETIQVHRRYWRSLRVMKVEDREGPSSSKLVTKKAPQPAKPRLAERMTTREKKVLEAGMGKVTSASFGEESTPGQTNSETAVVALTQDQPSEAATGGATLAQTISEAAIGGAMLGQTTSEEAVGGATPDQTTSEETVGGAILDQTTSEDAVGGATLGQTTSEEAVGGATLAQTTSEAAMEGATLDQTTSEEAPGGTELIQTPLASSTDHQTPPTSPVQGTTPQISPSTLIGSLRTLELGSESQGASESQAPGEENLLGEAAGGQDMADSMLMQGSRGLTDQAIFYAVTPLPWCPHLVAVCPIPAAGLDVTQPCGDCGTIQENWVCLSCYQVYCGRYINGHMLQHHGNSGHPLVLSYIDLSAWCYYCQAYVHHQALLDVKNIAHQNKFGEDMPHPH
How it was run: (§1)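 Luminescent HDAC-Glo I/II read-out was taken 20 min after adding substrate-developer, at room temperature. Before this, compound and enzyme were held together for 60 min in 24 mM Tris-HCl pH 7.5 with 0.6 mM glutathione and 0.01% Tween-20. The enzyme was full-length HDAC1 or HDAC6 from Sf-9 cells, GST-purified. Wells without enzyme defined 100% inhibition.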

[2] = biological target: T2, HDAC1 enzyme (Homo sapiens, UniProt Q13547); experiment: HDAC1/6 Enzyme Inhibitory Assay (HDAC-Glo I/II Assay kit), HDAC1; details: 1 μM test compound, wells without enzyme = 100% inhibition; for inhibition at 1 µM: read-out: HDAC1 inhibitory rate (%) (1 μM)
T2 construct: transducing full length HDAC1 and HDAC6 genes into Sf-9 insect cells; GST; purchased SignalChem; host or cells: Sf-9 insect cells
T2 sequence (Q13547 whole entry): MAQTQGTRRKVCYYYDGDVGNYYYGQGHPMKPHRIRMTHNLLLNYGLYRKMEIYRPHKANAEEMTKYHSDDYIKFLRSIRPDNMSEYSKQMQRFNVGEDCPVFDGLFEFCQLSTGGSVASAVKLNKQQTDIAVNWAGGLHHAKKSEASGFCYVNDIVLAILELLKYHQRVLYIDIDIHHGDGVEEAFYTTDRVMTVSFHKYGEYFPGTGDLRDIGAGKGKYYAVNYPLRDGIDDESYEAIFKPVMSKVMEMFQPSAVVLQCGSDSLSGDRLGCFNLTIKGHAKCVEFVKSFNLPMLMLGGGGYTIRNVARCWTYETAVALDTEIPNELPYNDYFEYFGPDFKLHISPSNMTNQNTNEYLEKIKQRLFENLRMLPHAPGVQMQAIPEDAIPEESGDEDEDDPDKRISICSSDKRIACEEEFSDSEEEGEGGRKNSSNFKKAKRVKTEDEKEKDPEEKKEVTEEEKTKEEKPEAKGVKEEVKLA
How it was run: as §1

[3] = biological target: T3, HDAC9 enzyme (Homo sapiens, UniProt Q9UKV0); experiment: HDAC9 Enzyme Inhibitory Assay (HDAC-Glo class IIa); details: 1 μM test compound, wells without enzyme = 100% inhibition; for inhibition at 1 µM: read-out: HDAC9 inhibitory rate (%) (1 μM)
T3 construct: transducing full length HDAC9 gene into Sf-9 insect cells; made in house; host or cells: Sf-9 insect cells
T3 sequence (Q9UKV0 whole entry, species assumed): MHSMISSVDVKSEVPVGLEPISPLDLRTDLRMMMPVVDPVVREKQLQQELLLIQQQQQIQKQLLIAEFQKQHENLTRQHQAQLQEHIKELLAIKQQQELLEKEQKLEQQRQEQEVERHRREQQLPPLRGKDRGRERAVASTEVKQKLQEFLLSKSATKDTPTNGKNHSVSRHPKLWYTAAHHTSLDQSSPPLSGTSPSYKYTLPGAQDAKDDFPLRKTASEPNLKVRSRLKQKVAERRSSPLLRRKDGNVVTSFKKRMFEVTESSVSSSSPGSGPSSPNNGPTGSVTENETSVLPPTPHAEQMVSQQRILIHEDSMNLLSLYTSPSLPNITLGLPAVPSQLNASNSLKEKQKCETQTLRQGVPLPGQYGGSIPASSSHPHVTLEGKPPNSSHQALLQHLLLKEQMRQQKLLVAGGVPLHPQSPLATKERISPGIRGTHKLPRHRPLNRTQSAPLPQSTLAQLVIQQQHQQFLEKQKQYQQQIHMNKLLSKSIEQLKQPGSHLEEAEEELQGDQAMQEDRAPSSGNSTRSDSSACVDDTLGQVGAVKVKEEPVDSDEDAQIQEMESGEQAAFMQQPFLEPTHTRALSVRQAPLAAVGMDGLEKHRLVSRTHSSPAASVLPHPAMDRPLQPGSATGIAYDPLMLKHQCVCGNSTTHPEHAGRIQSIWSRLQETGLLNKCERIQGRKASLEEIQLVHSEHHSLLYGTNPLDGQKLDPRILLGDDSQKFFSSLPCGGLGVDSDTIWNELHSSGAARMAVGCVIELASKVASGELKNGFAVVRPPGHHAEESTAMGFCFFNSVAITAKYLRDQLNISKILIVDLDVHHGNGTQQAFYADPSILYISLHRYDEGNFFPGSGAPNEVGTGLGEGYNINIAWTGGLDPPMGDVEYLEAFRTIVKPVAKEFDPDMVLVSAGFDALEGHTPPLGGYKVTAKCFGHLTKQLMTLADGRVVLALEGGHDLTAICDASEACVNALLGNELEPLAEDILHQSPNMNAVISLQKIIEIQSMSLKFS
How it was run: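 Full-length human HDAC9 from Sf-9 cells, Ni-NTA purified, preincubated with compound for 60 min at room temperature in Tris-HCl pH 7.5 buffer (MgCl2, KCl, NaCl, glutathione, Tween-20). HDAC-Glo class IIa substrate-developer added; luminescence read after 20 min, with no-enzyme wells defining 100% inhibition.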

| HDAC6 inhibitory rate (%) (1 μM) ([1]; 1 µM) | HDAC1 inhibitory rate (%) (1 μM) ([2]; 1 µM) | HDAC9 inhibitory rate (%) (1 μM) ([3]; 1 µM) | inhibition at 1 µM [1] | inhibition at 1 µM [2] | inhibition at 1 µM [3] | Compound |
| --- | --- | --- | --- | --- | --- | --- |
| 98% | 9% | 67% |  |  |  | CC1(C(=O)N[C@@H]2CCCC[C@H]2N2Cc3ccc(-c4noc(C(F)(F)F)n4)cc3C2=O)CC1(F)F (stereo partly drawn) [Example 171, 2,2-difluoro-1-methyl-N-((1R,2R) 2-(1-oxo-6-(5-(trifluoromethyl)-1,2,4-oxadiazol-3-yl)-1,3-dihydro-2H-isoindol-2-yl)cyclohexyl)cyclopropanecarboxamide] |
|  |  |  | 101% | 10% | 50% | CC(C)(O)CC(=O)N[C@@H]1CCCC[C@H]1N1Cc2ccc(-c3noc(C(F)(F)F)n3)cc2C1=O [Example 96, 3-hydroxy-3-methyl-N-((1R,2R)-2-(1-oxo-6-(5-(trifluoromethyl)-1,2,4-oxadiazol-3-yl)-1,3-dihydro-2H-isoindol-2-yl)cyclohexyl)butanamide] |
|  |  |  | 40% | -5% | 58% | CC(C)(C)OC(=O)N1CC[C@@H](N2Cc3cc(-c4noc(C(F)(F)F)n4)ccc3C2=O)[C@H](c2ccccc2)C1 (relative stereo) [Example 135, tert-butyl-trans-4-(1-oxo-5-(5-(trifluoromethyl)-1,2,4-oxadiazol-3-yl)-1,3-dihydro-2H-isoindol-2-yl)-3-phenylpiperidine-1-carboxylate] |
|  |  |  | 97% | 0% | 32% | O=C1c2cc(-c3noc(C(F)(F)F)n3)ccc2CN1[C@@H]1CCCC[C@H]1NC(=O)C1(CO)CCOCC1 [Example 113, 4-(hydroxymethyl)-N-((1R,2R)-2-(1-oxo-6-(5-(trifluoromethyl)-1,2,4-oxadiazol-3-yl)-1,3-dihydro-2H-isoindol-2-yl)cyclohexyl)tetrahydro-2H-pyran-4-carboxamide] |
|  |  |  | 43% | 4% | 32% | CC1(C(=O)N[C@H]2CCCC[C@@H]2N2Cc3ccc(-c4noc(C(F)(F)F)n4)cc3C2=O)COC1 [Example 193, 3-methyl-N-((1S,2S)-2-(1-oxo-6-(5-(trifluoromethyl)-1,2,4-oxadiazol-3-yl)-1,3-dihydro-2H-isoindol-2-yl)cyclohexyl)oxetane-3-carboxamide] |
|  |  |  | 96% | 13% | 57% | Cn1cc(C(=O)N[C@@H]2CCCC[C@H]2N2Cc3ccc(-c4noc(C(F)(F)F)n4)cc3C2=O)cn1 [Example 112, 1-methyl-N-((1R,2R)-2-(1-oxo-6-(5-(trifluoromethyl)-1,2,4-oxadiazol-3-yl)-1,3-dihydro-2H-isoindol-2-yl)cyclohexyl)-1H-pyrazole-4-carboxamide] |
|  |  |  | 100% | 12% | 36% | CC(C)N(C(=O)N[C@@H]1CCCC[C@H]1N1Cc2ccc(-c3noc(C(F)(F)F)n3)cc2C1=O)C(C)C [Example 166, 1,1-diisopropyl-3-((1R,2R)-2-(1-oxo-6-(5-(trifluoromethyl)-1,2,4-oxadiazol-3-yl)-1,3-dihydro-2H-isoindol-2-yl)cyclohexyl)urea] |
|  |  |  | 92% | -3% | 39% | O=C1CC[C@@H](C(=O)N[C@@H]2CCCC[C@H]2N2Cc3ccc(-c4noc(C(F)(F)F)n4)cc3C2=O)N1 [Example 128, 5-oxo-N-((1R,2R)-2-(1-oxo-6-(5-(trifluoromethyl)-1,2,4-oxadiazol-3-yl)-1,3-dihydro-2H-isoindol-2-yl)cyclohexyl)-L-prolinamide] |
|  |  |  | 98% | 3% | 43% | CN1CCC[C@H]1C(=O)N[C@@H]1CCCC[C@H]1N1Cc2ccc(-c3noc(C(F)(F)F)n3)cc2C1=O [Example 104, 1-methyl-N-((1R,2R)-2-(1-oxo-6-(5-(trifluoromethyl)-1,2,4-oxadiazol-3-yl)-1,3-dihydro-2H-isoindol-2-yl)cyclohexyl)-L-prolinamide] |

The next lines start with the compound.

| Compound | HDAC6 inhibitory rate (%) (1 μM) ([1]; 1 µM) | HDAC1 inhibitory rate (%) (1 μM) ([2]; 1 µM) | HDAC9 inhibitory rate (%) (1 μM) ([3]; 1 µM) | inhibition at 1 µM [1] | inhibition at 1 µM [2] | inhibition at 1 µM [3] |
| --- | --- | --- | --- | --- | --- | --- |
| O=C(c1ccccc1)N1CCC(N2Cc3ncc(-c4noc(C(F)(F)F)n4)cc3C2=O)C1 (stereo not drawn) [Example 70, 6-(1-benzoylpyrrolidin-3-yl)-3-(5-(trifluoromethyl)-1,2,4-oxadiazol-3-yl)-6,7-dihydro-5H-pyrrolo[3,4-b]pyridin-5-one] |  |  |  | 96% | 52% | 95% |
| O=C1c2cc(-c3noc(C(F)(F)F)n3)ccc2CN1[C@H]1CCc2ccccc21 [Example 24, 2-((1S)-2,3-dihydro-1H-inden-1-yl)-6-(5-(trifluoromethyl)-1,2,4-oxadiazol-3-yl)isoindolin-1-one] |  |  |  | 95% | 6% | 52% |
| CC(=O)N1CC[C@@H](N2Cc3ccc(-c4noc(C(F)(F)F)n4)cc3C2=O)[C@H](c2ccccc2)C1 [Example 20, 2-((3R,4R)-1-acetyl-3-phenylpiperidin-4-yl)-6-(5-(trifluoromethyl)-1,2,4-oxadiazol-3-yl)isoindolin-1-one] |  |  |  | 98% | 87% | 96% |
| CC(C)(C)OC(=O)N1CC[C@@H](N2Cc3ccc(-c4noc(C(F)(F)F)n4)cc3C2=O)[C@@H](c2ccccc2)C1 [Example 19, tert-butyl (3S,4R)-4-(1-oxo-6-(5-(trifluoromethyl)-1,2,4-oxadiazol-3-yl)-1,3-dihydro-2H-isoindol-2-yl)-3-phenylpiperidine-1-carboxylate] |  |  |  | 99% | 18% | 48% |
| O=C1c2cc(-c3noc(C(F)(F)F)n3)ccc2CN1[C@@H]1CNC[C@H]1c1ccccc1 (relative stereo) [Example 3, trans-2-(4-phenylpyrrolidin-3-yl)-6-(5-(trifluoromethyl)-1,2,4-oxadiazol-3-yl)isoindolin-1-one] |  |  |  | 96% | 87% | 98% |
| O=C1c2cc(-c3noc(C(F)(F)F)n3)ccc2CN1[C@H]1CCNC[C@@H]1c1ccccc1 [Example 31, 2-((3S,4S)-3-phenylpiperidin-4-yl)-6-(5-(trifluoromethyl)-1,2,4-oxadiazol-3-yl)isoindolin-1-one] |  |  |  | 99% | 78% | 97% |
| O=C1CC[C@H](C(=O)N[C@@H]2CCCC[C@H]2N2Cc3ccc(-c4noc(C(F)(F)F)n4)cc3C2=O)N1 [Example 92, 5-oxo-N-((1R,2R)-2-(1-oxo-6-(5-(trifluoromethyl)-1,2,4-oxadiazol-3-yl)-1,3-dihydro-2H-isoindol-2-yl)cyclohexyl)-D-prolinamide] |  |  |  | 96% | 0% | 23% |
| CC(=O)N1CC[C@H](N2Cc3cc(-c4noc(C(F)(F)F)n4)ccc3C2=O)[C@H](c2ccccc2)C1 (relative stereo) [Example 80, cis-2-(1-acetyl-3-phenylpiperidin-4-yl)-5-(5-(trifluoromethyl)-1,2,4-oxadiazol-3-yl)isoindolin-1-one] |  |  |  | 76% | 13% | 97% |
| O=C(N[C@@H]1CCCC[C@H]1N1Cc2ccc(-c3noc(C(F)(F)F)n3)cc2C1=O)N1C2CCCC1COC2 [Example 167, N-((1R,2R)-2-(1-oxo-6-(5-(trifluoromethyl)-1,2,4-oxadiazol-3-yl)-1,3-dihydro-2H-isoindol-2-yl)cyclohexyl)-3-oxa-9-azabicyclo[3.3.1]nonane-9-carboxamide] |  |  |  | 101% | 7% | 34% |
